Assay results reported in patent US9605004B2, “Chemical compounds” (SYNGENTA LIMITED, priority 2013, dated 2017).

Tests used:
[1] = tested on: a variety of test species; assay: Post-emergence herbicidal activity (Example 8b, Table 3); type: in vivo; conditions: application post-emergence, rate 1000 g/ha, evaluated after 13 days, scale 0-5; for Herbicidal damage score, ABUTH: Abutilon theophrasti; for Herbicidal damage score, ALOMY: Alopecurus myosuroides; for Herbicidal damage score, AMARE: Amaranthus retroflexus; for Herbicidal damage score, ECHCG: Echinochloa crus-galli; for Herbicidal damage score, SETFA: Setaria faberi; for Herbicidal damage score, ZEAMX: Zea mays
Summary of the method: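 Visual herbicidal injury (0 = no damage, 5 = plant killed) recorded 13 days post-treatment. Treatment consisted of a single spray onto emerged seedlings at day 8; conditions before and after were 24/16 °C, 14 h light, 65% humidity.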

[2] = tested on: a variety of test species; assay: Pre-emergence herbicidal activity (Example 8a, Table 2); type: in vivo; design: key: 0 = no damage to plant, 5 = total damage to plant; conditions: application pre-emergence, rate 1000 g/ha, evaluated after 13 days
Summary of the method: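 Seeds sown in standard soil in pots, held one day in glasshouse (24/16 °C day/night, 14 h light, 65% humidity), then sprayed with aqueous solution of compound formulated in acetone/water 50:50 with 0.5% Tween 20. Grown on under same conditions, watered twice daily; damage scored after 13 days (0 = none, 5 = total).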

Compound	Herbicidal damage score, ABUTH [1]	Herbicidal damage score, ALOMY [1]	Herbicidal damage score, AMARE [1]	Herbicidal damage score, ECHCG [1]	Herbicidal damage score, SETFA [1]	Herbicidal damage score, ZEAMX [1]	Pre-emergence herbicidal activity, damage score ABUTH [2]	Pre-emergence herbicidal activity, damage score ALOMY [2]	Pre-emergence herbicidal activity, damage score AMARE [2]	Pre-emergence herbicidal activity, damage score ECHCG [2]	Pre-emergence herbicidal activity, damage score SETFA [2]	Pre-emergence herbicidal activity, damage score ZEAMX [2]
CCn1nc(N2C(=O)C(Cl)=C(C)C2O)cc1C(F)(F)F (stereo not drawn) [Compound C1]	5	5	5	5	4	3	5	4	5	5	4	4
CCn1nc(N2C(=O)C(Cl)=C(C)C2O)cc1C(C)(C)C (stereo not drawn) [Compound C2]	5	5	4	5	5	3	4	4	5	4	5	2
CCn1nc(N2C(=O)C(Cl)=C(C)C2O)c2c1C(C)(C)CC2 (stereo not drawn) [Compound C3]	5	4	5	5	5	4	5	4	5	5	4	2
CC1=C(Cl)C(=O)N(c2cc(C(F)(F)F)n(C(C)C)n2)C1O (stereo not drawn) [Compound C4]	4	4	4	5	4	2	4	3	4	4	4	3
CC1=C(Cl)C(=O)N(c2cc(C(F)(F)F)n(CC(F)(F)F)n2)C1O (stereo not drawn) [Compound C5]	4	5	5	5	5	3	2	3	3	4	4	2
CCn1nc(N2C(=O)C(Cl)=C(C)C2O)cc1C(F)(F)F (stereo not drawn) [Compound C6]	5	5	5	5	4	3	5	4	5	5	4	4
CC1=C(Cl)C(=O)N(c2cc(C(F)(F)F)n(C(C)C)n2)C1O (stereo not drawn) [Compound C7]	4	4	4	5	4	2	4	3	4	4	4	3
CCn1nc(N2C(=O)C(Cl)=C(C)C2O)cc1C(C)(C)C (stereo not drawn) [Compound C8]	5	5	4	5	5	3	4	4	5	4	5	2
CC1=C(Cl)C(=O)N(c2cc(C(F)(F)F)n(CC(F)(F)F)n2)C1O (stereo not drawn) [Compound C9]	4	5	5	5	5	3	2	3	3	4	4	2
CC1=C(Cl)C(=O)N(c2cc(C#N)n(CC(F)(F)F)n2)C1O (stereo not drawn) [Compound C11]	5	2	1	4	3	2	5	0	2	1	1	1
CC1=C(Cl)C(=O)N(c2cc(C)n(C(F)F)n2)C1O (stereo not drawn) [Compound C12]	5	4	5	5	5	3	5	3	5	4	3	2
CC1=C(Cl)C(=O)N(c2cc(C)n(C(F)(F)F)n2)C1O (stereo not drawn) [Compound C13]	1	1	1	1	2	1	3	2	2	2	2	0
CC1=C(Cl)C(=O)N(c2nn(C)c(C(C)(C)C)c2C#N)C1O (stereo not drawn) [Compound D1]	5	4	5	5	5	3	5	4	5	4	4	2
CC1=C(Cl)C(=O)N(c2nn(C)c(C(C)(C)C)c2C#N)C1O (stereo not drawn) [Compound D2]	5	4	5	5	5	3	5	4	5	4	4	2
CC1=C(Cl)C(=O)N(c2nn(C)c(C(C)(C)C)c2Cl)C1O (stereo not drawn) [Compound D3]	5	4	4	5	5	4	5	3	5	5	5	4
